# Where a SMILES comes first, the peptide text is derived from it. The star is where a group is joined. Cbz = O=C(OCc1ccccc1)*; CH2F = FC*
# Tests used:
# Ian4−/− BBDP T cells = experiment: Mitochondrial membrane potential (Δψm) by MitoLight flow microfluorometry; type: cell-based, rat; details: control incubation with uncoupler, 50 μM, 15 minutes, 37° C.; positive control for dissipation of Δψm
# Protocol: Flat bottom 6-well culture plates (Falcon, Franklin Lakes, N.J.) were incubated with 10 μg/well anti-CD3 mAb, 10 μg/well anti-CD28 mAb, or both, in PBS at 4° C. After overnight incubation, plates were rinsed three times with PBS. Nylon wool-purified T cells were cultured in antibody-coated wells at 6×10^6 cells/well in 3 ml complete AIM-V media (AIM-V plus 55 μM 2-mercaptoethanol, Sigma) for 17, 40, or 68 hr in a humidified incubator at 37° C. with 5% CO2. Un-stimulated cells were incubated in complete AIM-V alone. Mitochondrial membrane potential (Δψm) of thymocytes and T cells was measured by two- or three-color flow microfluorometry using MitoLight™ (Chemicon, Temecula, Calif.) alone or in combination with biotin-conjugated anti-αβTCR mAb. Mitolight™ was employed according to the manufacturer's instructions. It is a lipophilic cation with a cellular distribution similar to that of JC-1. […] When the concentration of JC-1 reaches a threshold, it forms aggregate, causing a shift in its absorbed and emitted fluorescence (S. T. Smiley et al., Proc. Natl. Acad. Sci. U.S.A 88, 3671-3675 (1991)). […] For each experiment control and BBDP T cells were analyzed for both red and green fluorescence after Mitolight™ labeling. […] For each analysis, a minimum of 10,000 events was analyzed.
# [1] = tested on: Lymph node T cells from BBDP rats; experiment: Caspase inhibition, sub-diploid DNA; type: cell-based, rat; details: 17 hr of culture, varying concentrations
# Protocol: The percentage of T cells with sub-diploid DNA was measured as described (I. Nicoletti, G. Migliorati, M. C. Pagliacci, F. Grignani, C. Riccardi, J. Immunol. Methods 139, 271-279 (1991)). Briefly, freshly isolated or in vitro stimulated lymph node T cells were washed twice with PBS and centrifuged at 1500 rpm for 5 min. Pellets (2×10^6) were resuspended in 200 μl of PBS, fixed in 70% cold ethanol, and stored at 4° C. until used. At the time of analysis, cells were washed twice with PBS and incubated at 25° C. for 40 min in 500 μl of PBS containing 0.1% Triton X-100 and 50 μg of RNase (Boehringer Mannheim, Indianapolis, Ind.). Propidium iodide (10 μg, Sigma, St. Louis, Mo.) was added, and the suspension was incubated in the dark for 15 min. DNA content was determined by flow microfluorometry using a FACStarR® instrument (Becton Dickinson, San Jose, Calif.). Lymphoid cells were identified electronically by their forward and side light-scatter characteristics. For each analysis, a minimum of 10,000 events was analyzed.
# Lymph node T cells from BBDP rats were prepared as described above and cultured in AIM-V medium in the presence or absence of varying concentrations of the caspase inhibitors Z-VAD-FMK, Z-VDVAD, Z-DEVD, D-IETD, and Z-LEHD obtained from R&D Systems (Minneapolis, Minn.). […] Cells were then harvested, and the percentage of cells with sub-diploid DNA was determined as above.
SMILES,percentage of T cells with high Δψm (Ian4−/− BBDP T cells),apoptosis of Ian4−/− T cells (percentage of cells with sub-diploid DNA) [1]
"N#CC(C#N)=NNc1cccc(Cl)c1 [CCCP, carbonyl cyanide m-chlorophenyl-hydrazone]",~4%,
COC(=O)C[C@H](NC(=O)[C@H](C)NC(=O)[C@@H](NC(=O)OCc1ccccc1)C(C)C)C(=O)CF [Z-VAD-frnk] (Cbz-Val-Ala-Asp(OMe)-CH2F),,prevented apoptosis

# Reference: patent publication US20050123571A1, “Modulation of apoptosis” (priority 2003, published 2005)
